Assay results reported in PMC11003925, “Antimicrobial activity and properties of de novo design of short synthetic lipopeptides” (Folia Microbiologica, 2024).
In brackets after ≈: the same amount, converted by molar mass. Like-named read-outs stand apart in the source and are kept apart here. Residues, ends and D or L forms follow the SMILES beside them. *: point of attachment. Lithocholoyl = C[C@H](CCC(=O)*)[C@H]1CC[C@H]2[C@@H]3CC[C@@H]4C[C@H](O)CC[C@]4(C)[C@H]3CC[C@]12C; Palmitoyl = CCCCCCCCCCCCCCCC(=O)*

How the values were obtained:
[1] = tested on: M. luteus DBM 3053; assay type: cell-based, Micrococcus luteus; conditions: for MIC: DBM 3053, 24 h; for IC50: DBM 3053, 25 h
Method: (§1) A Bioscreen C automated microbiology growth curve analysis system (Growth Curves, Piscataway, NJ, USA) was used for the quantitative determination of antimicrobial activity (minimal inhibitory concentration, MIC) of PAL/LCA-peptides. Optical density was measured with a wide bandpass filter (wavelength range 420–580 nm) at regular intervals and temperatures. This assay was performed in a special microtiter plate (10 × 10 wells) that allowed the simultaneous testing of a large number of samples against several microorganisms. The total testing volume was 100 µL, obtained by mixing 10 µL of microbial culture with OD600 equal to 0.1 with growth medium and a solution of the tested compounds. The positive controls were vancomycin and tetracycline for Bacillus subtilis (100 µg/mL) for Gram-positive bacteria, kanamycin, and tetracycline for Acinetobacter baumannii (100 µg/mL) for Gram-negative bacteria, and clotrimazole or amphotericin (100 µg/mL) for fungi. The maximal concentration of tested lipoproteins was 1 mg/mL. A pure growth medium was used as the negative control. The measurement period was 25 h. The lowest concentration with a 100% inhibition effect for 24 h of incubation was chosen as the MIC. The antibacterial activity of each compound was expressed as the minimum inhibitory concentration MIC (MIC is the lowest concentration of the compound needed to inhibit the growth of bacterial cells) and IC50 (IC50 is the concentration of the compound needed to inhibit the growth of bacterial cells by 50%).

[2] = tested on: E. faecalis DBM 3075; assay type: cell-based; conditions: DBM 3075, 25 h
Method: as §1

[3] = tested on: E. coli DBM 3001; assay type: cell-based; conditions: for IC50: DBM 3001, 25 h
Method: as §1

[4] = tested on: Staph. aureus MRSA1; assay type: cell-based, Staphylococcus aureus; conditions: for MIC: 24 h; for IC50: 25 h
Method: as §1

[5] = tested on: Staph. aureus DBM 3002; assay type: cell-based, Staphylococcus aureus; conditions: for IC50: 25 h; for MIC: 24 h
Method: as §1

[6] = tested on: B. subtilis DBM 3006; assay type: cell-based, Bacillus subtilis; conditions: for IC50: DBM 3006, 25 h; for MIC: DBM 3006, 24 h
Method: as §1

[7] = tested on: C. tropicalis DBM 2166; assay type: cell-based, Candida tropicalis; conditions: for IC50: DBM 2166, 25 h
Method: as §1

[8] = tested on: A. baumannii DBM 3183; assay: microbe, parasite or virus in culture; assay type: cell-based, Acinetobacter baumannii; conditions: for IC50: DBM 3183, 25 h
Method: as §1

[9] = tested on: Ps. aeruginosa DBM 3081; assay type: cell-based, Pseudomonas aeruginosa; conditions: for IC50: 25 h
Method: as §1

[10] = tested on: HEK293T; assay: Cytotoxicity assay (xCELLigence impedance); assay type: cell-based, human; conditions: 24 h exposure
Method: (§2) Experiments were carried out using an xCELLigence RTCA DP Instrument (Roche Diagnostics GmbH, Mannheim, Germany) which was placed into an incubator (37 °C and 5% CO2). Cell proliferation and cytotoxicity experiments were performed using modified 16-well plates (E-plate, Roche Diagnostics GmbH, Mannheim, Germany). Microelectrodes were attached to the bottom of the wells for the impedance-based detection of attachment, spreading, and proliferation of the cells (Stoddart [2011]). This system monitors cellular events in real time without the incorporation of labels by measuring electrical impedance across an interdigitated microelectrode integrated into the bottom of this special tissue culture plate. This impedance measurement improves upon conventional endpoint assays and provides quantitative information about the biological status of the cells, including cell number, adhesion, viability, and morphology. Ninety microliters of cultivation medium was used for the blank sample, and subsequently, 100 µL of HepG2 or HEK293T cell suspension (7 × 10^5 cells/mL) was added and placed into the incubator (37 °C, 95% humidity, 5% CO2). […] Chrysophsin-3 at a concentration of 100 µg/mL was used as a positive control and solvent (deionized water) as a negative control. Subsequent incubation was performed for at least an additional 24 h. The result of the measurement was viability curves. After the measurement, percentages of tissue culture growth inhibition were calculated for all the tested substances, as follows: %inhibition=(1-(ΔϕCIsample)/(ΔϕCIcontrol))·100
(§3) Δ∅CIsample … the difference between the first and last average CI (cell index) values of the tissue culture in the presence of the tested sample.
(§4) Δ∅CIcontrol … the difference between the first and last average CI values of the tissue culture itself.

[11] = tested on: HepG2; assay: Cytotoxicity assay (xCELLigence impedance); assay type: cell-based, human; conditions: 24 h exposure
Method: as §2, §3, §4

[12] = tested on: plasmid pGreen 0029; assay: DNA binding assay (gel retardation); conditions: for weight ratio lipopeptide:DNA influencing electrophoretic mobility: 50 ng DNA, 1 h room temperature, 1% agarose gel
Method: This assay was performed as described by Park et al. ([1998]), with a few modifications. […] The reaction mixture was incubated at room temperature for 1 h. Subsequently, 4 µL of native loading buffer (10% Ficol, 10 mM Tris–HCl (pH 7.5), 50 mM EDTA, 0.25% bromophenol blue) was added. An aliquot was applied to 1% agarose gel electrophoresis in 0.5xTris borate-EDTA buffer. Circular plasmid DNA was isolated from (Luria–Bertani medium with AMPI in final concentration 100 µg/mL) bacterial strain E. coli DH5α / pBluescriptII KS- that had been grown overnight, and linearization was performed overnight by enzymatic reaction using restriction endonuclease EcoRV at 37 °C. The evaluation was performed by visualizing the DNA with the intercalation dye Midori Green Advanced DNA Stain under UV light. Reduced electrophoretic mobility compared to the control is considered to be evidence of peptide binding to DNA.
According to the previous results, we decided to clarify one of the possible molecular interaction mechanisms, the ability of the studied lipopeptides to bind microbial plasmid DNA. Based on the assumption that pore formation is only one of the influencing factors, which arose from previous results, the effect on one of the possible intracellular targets, DNA, was determined. This determination was carried out on isolated plasmid DNA, specifically on two plasmids, pGreen 0029 and pBluescript II KS- in circular and linearized form.

[13] = tested on: Staph. aureus; assay: Transmission electron microscopy of treated bacteria; assay type: cell-based, Staphylococcus aureus; conditions: 1 to 4 h incubation; media with (Mueller–Hinton broth 2) and without nutrients (potassium phosphate buffer)
Method: Pictures of damaged bacterial cells were obtained by transmission electron microscopy after 1 to 4 h of incubation. Cells of the Gram-positive bacterial strains were not stained. A JEOL JEM-1010 transmission electron microscope (JEOL, Tokyo, Japan) equipped with a MegaView III CCD camera was used for visualization, and evaluation was performed with the program for image analysis AnalySIS software v. 2.0 (Soft Imaging Systems). The samples were plated on a carbon-coated electron microscopic grid and observed with an accelerating voltage of 80 kV.

[14] = tested on: all the tested microorganisms; assay: Microtitre dilution screening at 1 mg/mL; assay type: cell-based; conditions: c = 1 mg/mL, microtitre dilution method
Method: as §1

[15] = first value of cell 'MIC / IC50', 100% inhibition for 24 h

Molecule	MIC [1] [µg/mL]	IC50 [1] [µg/mL]	IC50 [2]	IC50 [3]	MIC [4] [µg/mL]	IC50 [4] [µg/mL]	IC50 [5]	IC50 [6]	IC50 [7]	IC50 [8]	IC50 [9]	% inhibition ([10]; c 50 µg/mL) [%]	% inhibition ([10]; c 100 µg/mL) [%]	% inhibition ([10]; c 200 µg/mL) [%]	% inhibition ([11]; c 50 µg/mL) [%]	% inhibition ([11]; c 100 µg/mL) [%]	growth inhibition / activity in screening [14]	further results
CCCCCCCCCCCCCCCC(=O)N[C@@H](CC(C)C)C(=O)N[C@H](C(=O)N[C@@H](CCCCN)C(=O)NCC(=O)N[C@@H](C)C(=O)N[C@@H](CCCNC(=N)N)C(N)=O)C(C)C [SHP-2.2, PAL-LVKGAR-NH2] (Palmitoyl-LVKGAR-NH2)	7.0 (≈ 7.95 µM)	10.0 (≈ 11.4 µM)	N / > 100.0 µg/mL	N / > 100.0 µg/mL	14.9 (≈ 16.9 µM)	25.0 (≈ 28.4 µM)	N / > 100.0 µg/mL	N / > 100.0 µg/mL	N / > 100.0 µg/mL	N / > 100.0 µg/mL	N / > 100.0 µg/mL	11.1 ± 1.7	19.3 ± 2.9	28.6 ± 4.3	4.3 ± 0.6	11.4 ± 1.7	–	% inhibition ([11]; c 200 µg/mL): 18.5 ± 2.8%
CCCCCCCCCCCCCCCC(=O)NCC(=O)N[C@H](C(=O)N[C@@H](CC(C)C)C(=O)N[C@@H](CCCCN)C(=O)N[C@@H](CCCNC(=N)N)C(=O)N[C@@H](C)C(N)=O)C(C)C [SHP-3.2, PAL-GVLKRA-NH2] (Palmitoyl-GVLKRA-NH2)	5.8 (≈ 6.59 µM)	10.0 (≈ 11.4 µM)	N / > 100.0 µg/mL	100.0 µg/mL (≈ 114 µM)	6.8 (≈ 7.73 µM)	12.5 (≈ 14.2 µM)	30.0 µg/mL (≈ 34.1 µM)	50.0 µg/mL (≈ 56.8 µM)	N / > 100.0 µg/mL	N / > 100.0 µg/mL	100.0 µg/mL (≈ 114 µM)	4.1 ± 0.6	29.6 ± 4.4	0.0 ± 0.3	17.0 ± 2.6	20.7 ± 3.1	–	influence on electrophoretic mobility of plasmid DNA ([12]; circular or linearized forms, tested ratios): did not exhibit any influence; MIC ([3]; DBM 3001, 24 h): 68.7 µg/mL (≈ 78 µM); MIC [5]: 8.6 µg/mL (≈ 9.77 µM); MIC [6]: 41.1 µg/mL (≈ 46.7 µM); MIC ([9]; 24 h): 83.6 µg/mL (≈ 95 µM); % inhibition ([11]; c 200 µg/mL): 23.2 ± 3.5%
CC(C)C[C@H](NC(=O)[C@@H](NC(=O)CNC(=O)CC[C@@H](C)[C@H]1CC[C@H]2[C@@H]3CC[C@@H]4C[C@H](O)CC[C@]4(C)[C@H]3CC[C@]12C)C(C)C)C(=O)N[C@@H](CCCCN)C(=O)N[C@@H](CCCNC(=N)N)C(=O)N[C@@H](C)C(N)=O [SHP-3.3, LCA-GVLKRA-NH2] (Lithocholoyl-GVLKRA-NH2)	1.5 (≈ 1.5 µM)	5.0 (≈ 5 µM)	N / > 100.0 µg/mL	N / > 100.0 µg/mL	25.2 (≈ 25.2 µM)	50.0 (≈ 50 µM)	50.0 µg/mL (≈ 50 µM)	50.0 µg/mL (≈ 50 µM)	30.0 µg/mL (≈ 30 µM)	N / > 100.0 µg/mL	N / > 100.0 µg/mL	7.8 ± 1.2	28.5 ± 4.3	88.2 ± 13.2	4.3 ± 0.6	35.6 ± 5.3	–	weight ratio lipopeptide:DNA influencing electrophoretic mobility ([12]; circular plasmid): 1.0; weight ratio lipopeptide:DNA influencing electrophoretic mobility ([12]; linearized plasmid): 10.0; MIC [5]: 28.8 µg/mL (≈ 28.8 µM); MIC [6]: 34.3 µg/mL (≈ 34.3 µM); MIC [7, 15]: 10.0 µg/mL (≈ 10 µM); morphological effect on bacterial cells (TEM) [13]: damaging cellular envelopes
NC[C@H]1O[C@H](O[C@H]2[C@H](O)[C@@H](O[C@H]3O[C@H](CO)[C@@H](O)[C@H](N)[C@H]3O)[C@H](N)C[C@@H]2N)[C@H](O)[C@@H](O)[C@@H]1O [kanamycin, reference compound]	–	–	–	–	–	–	–	–	–	–	–	–	–	–	–	–	–	MIC [9, 15]: 20 µg/mL (≈ 41.3 µM)
CN(C)[C@@H]1C(O)=C(C(N)=O)C(=O)[C@@]2(O)C(O)=C3C(=O)c4c(O)cccc4[C@@](C)(O)[C@H]3C[C@@H]12 [tetracycline, reference compound]	–	–	–	–	–	–	–	–	–	–	–	–	–	–	–	–	–	MIC ([8]; Acinetobacter baumannii, DBM3183, first value of cell 'MIC / IC50', lowest concentration with 100% inhibition for 24 h, 100 µL, OD 420–580 nm): 10 µg/mL (≈ 22.5 µM)
GVLKRA-NH2 [SHP-3.1]	–	–	–	–	–	–	–	–	–	–	–	–	–	–	–	–	low activity	growth inhibition ([6]; c = 1 mg/mL): One hundred percent
LVKGAR-NH2 [SHP-2.1, primary hexapeptide with C-terminal amidation]	–	–	–	–	–	–	–	–	–	–	–	–	–	–	–	–	low activity	–
LVKRAG-NH2 [SHP-1.1, primary hexapeptide with C-terminal amidation]	–	–	–	–	–	–	–	–	–	–	–	–	–	–	–	–	low activity	growth inhibition ([1]; c = 1 mg/mL): One hundred percent; growth inhibition ([5]; c = 1 mg/mL, Staphylococcus aureus, strain not stated): One hundred percent
